Data published in patent publication US20240140931A1, “TRICYCLIC COMPOUNDS AND USES THEREOF” (HUTCHMED LIMITED, priority 2021, published 2024).

Key:
[1] = target: Human full-length SHP2 recombinant protein (Homo sapiens (Human), UniProt Q06124); assay: Assay of full-length SHP2 phosphatase activity; assay type: biochemical; details: DiFMUP substrate, with activating peptide
Protocol: Example 2 Assay of Full-Length SHP2 Phosphatase Activity
1. Reagents and Materials • Human full-length SHP2 recombinant protein: BPS Bioscience, Cat #79018; • SHP2 substrate DiFMUP (1 mM): BPS Bioscience, Cat #79769; • SHP2 activating peptide (100 μM): BPS Bioscience, Cat #79319-2; • DTT: Merck, Cat #DTT-RO; • 384-well plate: Corning, Cat #3575; • 96-well plate: Thermo Fisher Scientific, Cat #249952; • Instrument: EnVision 2104, PerkinElmer.
2. Preparation of Reaction Solutions
The test compound was dissolved in DMSO and diluted with DMSO to 100.0 μM, and the compound was further 3-fold diluted with DMSO to: 100.00, 33.33, 11.11, 3.70, 1.23, 0.41, 0.14 and 0.05 μM.
3. Experimental Steps • To the corresponding wells of the 384-well plate was added 2.5 μL of 4× test compound or 2.5 μL of 4% DMSO solution, and centrifugation was carried out at 1000 rpm for 30 seconds. • To the test compound well and positive control well was added 2.5 μL of 4× mixed solution of SHP2 enzyme/activating peptide while to the negative control well was added 2.5 μL of 1× enzymatic reaction buffer; centrifugation was carried out at 1000 rpm for 30 seconds and incubation was carried out at room temperature for 30 minutes. • To each well was added 5 μL of 2×DiFMUP substrate to initiate the enzymatic reaction, then the plate was transiently oscillated and centrifuged at 1000 rpm for 30 seconds, and the 384-well plate was sealed with a sealing membrane and incubated at 25° C. on a low-speed shaker (100 rpm) in the dark for 60 minutes. • The fluorescence value (relative fluorescence units, RFU) of each well was detected on EnVision2104 (excitation: 355 nm, emission: 460 nm).
wherein • the RFU of compound well refers to the fluorescence reading at 460 nm of the well containing the test compounds; • the RFU of negative control well refers to the fluorescence reading at 460 nm of the background well containing 1% DMSO and the enzymatic reaction buffer; • the RFU of positive control well refers to the fluorescence reading at 460 nm of the well containing 1% DMSO and the mixed solution of SHP2 enzyme/activating peptide.
(§1) IC50 values were calculated following formula 205: y=A+((B−A)/(1+((C/X)^D))), by using the XL-Fit 5.0 software.

[2] = system: pERK1/2 (Thr202/Tyr204) in Miapaca2 cells; assay: Assay of intracellular pERK1/2 (Thr202/Tyr204) phosphorylation; assay type: cell-based; details: pERK1/2 (Thr202/Tyr204) HTRF
Protocol: Example 3 Assay of Intracellular pERK1/2 (Thr202/Tyr204) Phosphorylation
1. Reagents and Materials • pERK1/2 (Thr202/Tyr204) HTRF kit: Cisbio, Cat #64ERKPEH; • Cell line: Miapaca2, ATCC, CRL-1420; • OptiPlate™-384-well plate: PerkinElmer, Cat #6007299; • 96-well plate: Corning, Cat #353072; • Instrument: EnVision2104, PerkinElmer.
2. Preparation of Reaction Solutions • The test compound was dissolved in DMSO and diluted with DMSO to 600.0 μM, and the compound was further 3-fold diluted with DMSO to: 600.0, 200.0, 66.7, 22.2, 7.4, 2.5, 0.82 and 0.27 μM. Then 10 μL of the compound at different dilution concentrations was added to 190 μL of a DMEM medium to prepare a 10× test compound, wherein DMSO was at the concentration of 5% (DMSO was at the final concentration of 0.5%). • 1× cell lysis buffer: 4× cell lysis stock solution (provided by the kit) was diluted 4-fold with deionized water, and then 1% 100× blocking stock solution (provided by the kit) was added thereto. • pERK1/2 detection solution (prepared just before use): the pERK1/2 d2 antibody (provided by the kit) and pERK1/2 Cryptate antibody (provided by the kit) were diluted with the detection solution (provided by the kit) at a ratio of 1:1:38.
3. Experimental Steps • Miapaca2 cells were inoculated into a 96-well plate at a density of 10000 cells/well at 90 μL/well and cultured in a cell incubator at 5% CO2 and 37° C. overnight. • 10 μL of 10× test compound was added to the 90 μL cell culture 96-well plate; to the cell positive control well was added 10 μL of 5% DMSO culture solution; and the plate was cultured in a cell incubator at 5% CO2 and 37° C. for 2 hours. • The medium in the 96-well plate was removed; 50 μL of 1× cell lysis buffer was added to each well; the plate was placed in a microplate shaker; and lysis under shaking was carried out at 900 rpm at room temperature for 1 hour. • 16 μL of the lysis buffer in the 96-well plate was taken and transferred to a 384-well plate, and centrifugation was carried out at 1000 rpm for 30 seconds; then 4 μL of pERK1/2 detection solution was added to each well and centrifugation was carried out at 1000 rpm for 30 seconds; and the 384-well plate was sealed with a sealing membrane and incubated at 25° C. on a low-speed shaker (100 rpm) in the dark for 2 hours. • The fluorescence value (relative fluorescence units, RFU) of each well was detected on EnVision2104 (emission 1: 665 nm, emission 2: 615 nm).
wherein • the fluorescence ratio of compound well refers to the fluorescence ratio of the well containing the test compounds; • the fluorescence ratio of negative control well refers to the fluorescence ratio of the background containing the cell lysis buffer and no Miapaca2 cells; • the fluorescence ratio of positive control well refers to the fluorescence ratio of the well containing 0.5% DMSO and Miapaca2 cells.
as §1

| Compound | IC50 [1] | IC50 ([2]; Homo sapiens, MIA PaCa-2, 2 h) | IC50 ([2]; 2 hours) |
| --- | --- | --- | --- |
| COCC#Cc1cccc2c1CC1(CCN(c3cc(=O)n(-c4cccc(Cl)c4Cl)c(C)n3)CC1)[C@@H]2N [Compound 96] | 5 nM | 55 nM | – |
| C#Cc1ccc2c(c1)[C@@H](N)C1(CCN(c3cc(=O)n(-c4ccc(F)c(Cl)c4Cl)c(C)n3)CC1)C2 (atropisomer, axis not shown) [Compound 109] | 118 nM | – | 259 nM |
| C#Cc1ccc2c(c1)CC1(CCN(c3ncc(Sc4ccnc(N)n4)c4nccn34)CC1)[C@@H]2N [Compound 9] | 4 nM | 38 nM | – |
| C#Cc1ccc2c(c1)[C@@H](N)C1(CCN(c3cc(=O)n(-c4cccc(C#N)c4Cl)c(C)n3)CC1)C2 [Compound 34] | 4 nM | – | 244 nM |
| C#Cc1ccc2c(c1)[C@@H](N)C1(CCN(c3cc(=O)n(-c4cccc(Cl)c4F)c(C)n3)CC1)C2 (atropisomer, axis not shown) [Compound 65] | 2 nM | – | 60 nM |
| C#Cc1ccc2c(c1)CC1(CCN(c3cnc(Sc4ccnc(N)c4Cl)c(N)n3)CC1)[C@@H]2N [Compound 2] | 5 nM | 23 nM | – |
| C#Cc1ccc2c(c1)[C@@H](N)C1(CCN(c3cc(=O)n(-c4ccc(F)c(OC)c4Cl)c(C)n3)CC1)C2 (atropisomer, axis not shown) [Compound 162] | 34 nM | – | 155 nM |
| CC#Cc1ccc2c(c1)[C@@H](N)C1(CCN(c3cc(=O)n(-c4cccc(Cl)c4Cl)c(C)n3)CC1)C2 [Compound 79] | 1 nM | 60 nM | – |
| C#Cc1ccc2c(c1)[C@@H](N)C1(CCN(c3cc(=O)n(-c4ccc(OC)c(Cl)c4Cl)c(C)n3)CC1)C2 [Compound 211] | 17 nM | 161 nM | – |
| CNC(=O)C#Cc1ccc2c(c1)[C@@H](N)C1(CCN(c3cc(=O)n(-c4ccc(F)c(F)c4Cl)c(C)n3)CC1)C2 (atropisomer, axis not shown) [Compound 210] | 52 nM | – | 527 nM |
| C#Cc1cc2c(cc1F)CC1(CCN(c3cc(=O)n(-c4cccc(Cl)c4Cl)c(C)n3)CC1)[C@@H]2N [Compound 228] | 203 nM | > 1000 nM | – |
| C#Cc1ccc2c(c1)CC1(CCN(c3nc(N)c(-c4cn(C)c5ncccc45)c(=O)n3C)CC1)[C@@H]2N [Compound 4, (S)-6-amino-2-(1-amino-5-ethynyl-1,3-dihydrospiro[indene-2,4′-piperidin]-1′-yl)-3-methyl-5-(1-methyl-1H-pyrrolo[2,3-b]pyridin-3-yl)pyrimidin-4(3H)-one] | 4 nM | 160 nM | – |
| COCC#Cc1ccc2c(c1)[C@@H](N)C1(CCN(c3cc(=O)n(-c4cccc(OC)c4Cl)c(C)n3)CC1)C2 [Compound 104] | 4 nM | 40 nM | – |
| C#Cc1ccc2c(c1)[C@@H](N)C1(CCN(c3ncc(Sc4ccnc(N)n4)c4nccn34)CC1)C2 [Compound 27] | 1 nM | 11 nM | – |
| C#Cc1ccc2c(c1)[C@@H](N)C1(CCN(c3cc(=O)n(-c4cccc(Cl)c4Cl)c(C(F)(F)F)n3)CC1)C2 [Compound 121] | > 1000 nM | > 1000 nM | – |
| COCC#Cc1ccc2c(c1)[C@@H](N)C1(CCN(c3cnc(Sc4ccnc(N)n4)c(N)n3)CC1)C2 [Compound 112] | 2 nM | 6 nM | – |
| Cc1nc(N2CCC3(CC2)Cc2ccc(C#CCN(C)C)cc2[C@H]3N)cc(=O)n1-c1cccc(F)c1Cl [Compound 74] | 4 nM | 223 nM | – |

More lines, now with the values ahead:

| IC50 [1] | IC50 ([2]; Homo sapiens, MIA PaCa-2, 2 h) | IC50 ([2]; 2 hours) | Compound |
| --- | --- | --- | --- |
| 16 nM | 301 nM | – | COCC#Cc1ccc2c(c1)[C@@H](N)C1(CCN(c3cc(=O)n(-c4ccc(C#N)cc4Cl)c(C)n3)CC1)C2 [Compound 93] |
| 46 nM | 343 nM | – | Cc1nc(N2CCC3(CC2)Cc2ccc(C#C[C@H](C)O)cc2[C@H]3N)cc(=O)n1-c1cccc(Cl)c1Cl [Compound 38] |
| 2 nM | 42 nM | – | C#Cc1ccc2c(c1)[C@@H](N)C1(CCN(c3cnc(Sc4ccnc(N)n4)c(N)n3)CC1)C2 [Compound 126] |
| 2 nM | 6 nM | – | COCC#Cc1ccc2c(c1)[C@@H](N)C1(CCN(c3ncc(Sc4ccnc(N)c4Cl)c4nccn34)CC1)C2 [Compound 40] |
| 1 nM | – | 7 nM | C#Cc1ccc2c(c1)[C@@H](N)C1(CCN(c3cc(=O)n(-c4ccc(F)c(Cl)c4Cl)c(C)n3)CC1)C2 (atropisomer, axis not shown) [Compound 108] |
| 4 nM | 125 nM | – | C#Cc1cccc2c1CC1(CCN(c3cc(=O)n(-c4cccc(Cl)c4Cl)c(C)n3)CC1)[C@@H]2N [Compound 80] |
| 2 nM | – | 12 nM | C#Cc1ccc2c(c1)[C@@H](N)C1(CCN(c3nc(C)n(-c4ccc(F)cc4Cl)c(=O)c3C)CC1)C2 (atropisomer, axis not shown) [Compound 102] |
| 2 nM | 40 nM | – | COCCSc1ccc2c(c1)[C@@H](N)C1(CCN(c3cc(=O)n(-c4cccc(Cl)c4Cl)c(C)n3)CC1)C2 [Compound 99] |
| 2 nM | 26 nM | – | CCOCC#Cc1ccc2c(c1)[C@@H](N)C1(CCN(c3cc(=O)n(-c4cccc(Cl)c4Cl)c(C)n3)CC1)C2 [Compound 115] |
| 2 nM | 18 nM | – | C#Cc1ccc2c(c1)CC1(CCN(c3ncc(Sc4ccnc(N)c4Cl)c4nccn34)CC1)[C@@H]2N [Compound 1, (S)-1′-(8-((2-amino-3-chloropyridin-4-yl)thio)imidazo[1,2-c]pyrimidin-5-yl)-5-ethynyl-1,3-dihydrospiro[indene-2,4′-piperidin]-1-amine] |
| 15 nM | – | 153 nM | C#Cc1ccc2c(c1)[C@@H](N)C1(CCN(c3cc(=O)n(-c4ccc(F)c(OC)c4F)c(C)n3)CC1)C2 (atropisomer, axis not shown) [Compound 89] |
| 13 nM | 251 nM | – | C#Cc1ccc2c(c1)[C@@H](N)C1(CCN(c3nc(C)c(Sc4ccnc(N)c4Cl)n4cncc34)CC1)C2 [Compound 180] |
| 0.8 nM | – | 26 nM | C#Cc1ccc2c(c1)[C@@H](N)C1(CCN(c3cc(=O)n(-c4ccc(F)c(OC)c4F)c(C)n3)CC1)C2 (atropisomer, axis not shown) [Compound 88] |
| 2 nM | 12 nM | – | COCC#Cc1ccc2c(c1)[C@@H](N)C1(CCN(c3ncc(Sc4ccnc(N)n4)c4nccn34)CC1)C2 [Compound 100] |
